Experimental data from US20050282743A1, “Molecular interactions in cells” (Arbor Vita Corporation, priority 2001, published 2005).
Ends that are not written are not given here. Peptide text beside a SMILES is read from it. * marks the point of attachment. Biotin = O=C1N[C@H]2[C@H](CS[C@H]2CCCCC(=O)*)N1

Legend:
[1] = molecular target: T1, PDZ protein (GST-PDZ fusion) (Homo sapiens, UniProt Q02410); test: G' assay (10 uM PL peptide), results of TABLE 7 and TABLE 12; assay type: binding
T1 construct: made in house; host or cells: E. coli (DH5alpha, BL21 or JM109)
T1 sequence (Q02410 1-837): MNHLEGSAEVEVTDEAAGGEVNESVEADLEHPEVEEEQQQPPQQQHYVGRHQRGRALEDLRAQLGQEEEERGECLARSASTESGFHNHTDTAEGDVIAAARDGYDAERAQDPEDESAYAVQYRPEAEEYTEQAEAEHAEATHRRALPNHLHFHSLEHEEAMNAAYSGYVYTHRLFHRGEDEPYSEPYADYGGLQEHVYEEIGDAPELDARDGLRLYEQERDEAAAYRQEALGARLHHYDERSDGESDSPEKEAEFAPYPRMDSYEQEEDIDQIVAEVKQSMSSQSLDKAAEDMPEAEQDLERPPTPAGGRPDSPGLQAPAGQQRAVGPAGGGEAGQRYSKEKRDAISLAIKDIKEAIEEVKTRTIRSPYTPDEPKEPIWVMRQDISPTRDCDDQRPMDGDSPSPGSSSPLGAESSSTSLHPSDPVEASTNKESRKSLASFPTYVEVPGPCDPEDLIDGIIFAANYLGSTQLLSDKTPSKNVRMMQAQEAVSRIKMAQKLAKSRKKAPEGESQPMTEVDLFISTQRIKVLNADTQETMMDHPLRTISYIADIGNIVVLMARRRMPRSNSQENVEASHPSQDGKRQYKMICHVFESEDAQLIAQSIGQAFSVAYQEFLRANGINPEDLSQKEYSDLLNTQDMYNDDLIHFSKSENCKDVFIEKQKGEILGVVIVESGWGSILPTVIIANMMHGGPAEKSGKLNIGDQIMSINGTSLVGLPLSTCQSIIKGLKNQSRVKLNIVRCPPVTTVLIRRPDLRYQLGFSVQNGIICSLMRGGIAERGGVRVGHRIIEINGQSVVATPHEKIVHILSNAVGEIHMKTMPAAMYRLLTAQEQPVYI
Method in brief: (§1)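 Binding classes derive from A450 nm of bound biotin-tagged PL peptide. A score of 5 needs A450 above 4 in more than two repeats.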

[2] = molecular target: T2, PDZ protein (GST-PDZ fusion) (Homo sapiens, UniProt Q6P0Q8); test: as above; assay type: binding
T2 construct: made in house; host or cells: E. coli (DH5alpha, BL21 or JM109)
T2 sequence (Q6P0Q8 whole entry, the tested form may be a part): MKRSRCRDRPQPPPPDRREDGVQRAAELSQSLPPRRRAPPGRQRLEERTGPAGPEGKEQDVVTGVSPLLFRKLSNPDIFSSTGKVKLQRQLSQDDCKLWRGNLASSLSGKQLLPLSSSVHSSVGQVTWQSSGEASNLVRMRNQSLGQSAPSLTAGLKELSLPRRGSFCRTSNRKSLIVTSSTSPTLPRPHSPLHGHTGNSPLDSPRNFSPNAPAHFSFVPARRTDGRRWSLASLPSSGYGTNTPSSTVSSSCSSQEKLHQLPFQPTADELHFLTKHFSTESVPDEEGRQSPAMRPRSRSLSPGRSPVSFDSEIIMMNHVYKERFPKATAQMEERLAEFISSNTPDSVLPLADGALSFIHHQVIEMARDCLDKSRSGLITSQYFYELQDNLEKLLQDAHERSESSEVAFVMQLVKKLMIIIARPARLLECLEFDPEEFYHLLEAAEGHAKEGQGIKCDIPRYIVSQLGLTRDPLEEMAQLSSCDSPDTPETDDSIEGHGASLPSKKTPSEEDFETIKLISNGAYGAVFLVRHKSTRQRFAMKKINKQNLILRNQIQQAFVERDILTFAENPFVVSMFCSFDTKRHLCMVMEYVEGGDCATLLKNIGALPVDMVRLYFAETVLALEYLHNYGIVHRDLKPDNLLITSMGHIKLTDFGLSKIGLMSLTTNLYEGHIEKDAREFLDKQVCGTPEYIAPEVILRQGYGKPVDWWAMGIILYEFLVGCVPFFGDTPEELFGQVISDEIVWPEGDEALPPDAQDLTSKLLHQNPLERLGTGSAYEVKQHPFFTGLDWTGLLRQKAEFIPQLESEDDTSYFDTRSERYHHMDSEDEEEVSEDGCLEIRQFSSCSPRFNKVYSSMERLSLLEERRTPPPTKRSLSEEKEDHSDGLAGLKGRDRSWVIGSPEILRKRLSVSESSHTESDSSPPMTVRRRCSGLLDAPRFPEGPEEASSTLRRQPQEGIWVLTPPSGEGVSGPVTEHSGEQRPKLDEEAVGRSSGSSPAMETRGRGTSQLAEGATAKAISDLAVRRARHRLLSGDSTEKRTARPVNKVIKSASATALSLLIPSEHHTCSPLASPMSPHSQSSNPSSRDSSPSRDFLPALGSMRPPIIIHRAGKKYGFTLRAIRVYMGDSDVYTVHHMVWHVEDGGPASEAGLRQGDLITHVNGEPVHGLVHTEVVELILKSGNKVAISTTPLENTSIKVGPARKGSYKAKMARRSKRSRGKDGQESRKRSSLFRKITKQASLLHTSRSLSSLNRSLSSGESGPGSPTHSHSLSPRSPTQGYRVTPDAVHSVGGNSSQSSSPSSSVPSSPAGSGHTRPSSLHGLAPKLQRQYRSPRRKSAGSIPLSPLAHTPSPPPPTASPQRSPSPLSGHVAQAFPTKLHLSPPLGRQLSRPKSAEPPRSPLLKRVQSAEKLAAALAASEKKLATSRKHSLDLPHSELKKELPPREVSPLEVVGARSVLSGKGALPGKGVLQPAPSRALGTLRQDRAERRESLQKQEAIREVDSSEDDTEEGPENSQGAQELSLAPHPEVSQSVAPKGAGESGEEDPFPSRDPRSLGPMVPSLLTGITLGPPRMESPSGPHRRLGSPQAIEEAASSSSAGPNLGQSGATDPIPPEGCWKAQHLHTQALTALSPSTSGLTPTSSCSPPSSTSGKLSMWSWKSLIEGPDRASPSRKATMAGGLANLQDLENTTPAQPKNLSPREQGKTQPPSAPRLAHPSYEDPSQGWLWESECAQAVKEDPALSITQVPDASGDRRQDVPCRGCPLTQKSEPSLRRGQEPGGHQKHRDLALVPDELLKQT
Method in brief: as §1

[3] = PDZ KIAA807, PDZ Domain not given

| Compound | Classification ([1]; PDZ Mint 1, PDZ Domain 1, 2) | Classification ([2]; PDZ KIAA807 (domain not given)) | Classification ([1]; PDZ Mint 1, PDZ Domain 2) | Classification ([2]; PDZ KIAA0807(S), PDZ Domain 1) | Classification [2, 3] | Classification ([2]; PDZ KIAA807) |
| --- | --- | --- | --- | --- | --- | --- |
| RNIEEVYVGGKQVVPFSSSV (Biotin-RNIEEVYVGGKQVVPFSSSV) [Nedasin (s-form)] | 1 (A450 nm 0-1) | 2 (A450 nm 1-2) |  |  |  |  |
| CC(C)C[C@H](NC(=O)[C@H](C)NC(=O)[C@@H](NC(=O)[C@H](CCC(=O)O)NC(=O)[C@H](CCCNC(=N)N)NC(=O)[C@H](CCCNC(=N)N)NC(=O)CNC(=O)[C@H](CCC(N)=O)NC(=O)[C@H](CC(C)C)NC(=O)[C@H](CCCNC(=N)N)NC(=O)CNC(=O)CNC(=O)[C@H](CCCNC(=N)N)NC(=O)[C@H](C)NC(=O)[C@H](CO)NC(=O)[C@H](CCCNC(=N)N)NC(=O)CNC(=O)CNC(=O)[C@H](C)NC(=O)[C@H](C)NC(=O)CCCC[C@@H]1SC[C@@H]2NC(=O)N[C@@H]21)[C@@H](C)O)C(=O)O [HPV E6 33 (modified)] (Biotin-AAGGRSARGGRLQGRRETAL-OH; C-terminus assumed) |  |  | 1 (A450 nm 0-1) | 5 (A450 nm of 4 more than 2× repeated) |  |  |
| TQGFPGPATWRRISSLESEV | 1 (A450 nm 0-1) |  | 1 (A450 nm 0-1) | 5 (A450 nm of 4 more than 2× repeated) | 4 (A450 nm 3-4) |  |
| VHDAESSDEDGYDWGPATDL (Biotin-VHDAESSDEDGYDWGPATDL) [zona occludens 3 (ZO-3)] |  |  | 2 (A450 nm 1-2) | 5 (A450 nm of 4 more than 2× repeated) | 5 (A450 nm of 4 more than 2× repeated) |  |
| CC(C)C[C@H](NC(=O)[C@H](CC(=O)O)NC(=O)[C@H](CO)NC(=O)[C@H](CCC(=O)O)NC(=O)CNC(=O)[C@H](Cc1ccc(O)cc1)NC(=O)[C@H](CC(C)C)NC(=O)[C@H](C)NC(=O)[C@H](CO)NC(=O)[C@H](CO)NC(=O)[C@H](Cc1ccccc1)NC(=O)[C@H](C)NC(=O)[C@H](C)NC(=O)[C@H](Cc1ccc(O)cc1)NC(=O)[C@H](CC(=O)O)NC(=O)[C@H](CC(C)C)NC(=O)[C@H](C)NC(=O)CNC(=O)[C@@H]1CCCN1C(=O)[C@@H](NC(=O)CCCC[C@@H]1SC[C@@H]2NC(=O)N[C@@H]21)C(C)C)C(=O)O [a-actinin 2] (Biotin-VPGALDYAAFSSALYGESDL-OH; C-terminus assumed) | 1 (A450 nm 0-1) |  | 1 (A450 nm 0-1) | 5 (A450 nm of 4 more than 2× repeated) | 5 (A450 nm of 4 more than 2× repeated) |  |
| CC[C@H](C)[C@H](NC(=O)[C@H](CO)NC(=O)[C@@H](NC(=O)[C@H](Cc1ccccc1)NC(=O)[C@H](CO)NC(=O)CCCC[C@@H]1SC[C@@H]2NC(=O)N[C@@H]21)[C@@H](C)O)C(=O)N[C@@H](CC(C)C)C(=O)N[C@H](C(=O)N[C@@H](CS)C(=O)N[C@@H](Cc1c[nH]cn1)C(=O)N[C@@H](CCC(N)=O)C(=O)N[C@@H](CCCNC(=N)N)C(=O)N[C@@H](CCCNC(=N)N)C(=O)N[C@H](C(=O)N[C@@H](CCC(N)=O)C(=O)N[C@@H](CCCNC(=N)N)C(=O)N[C@@H](CCCCN)C(=O)N[C@@H](CCC(=O)O)C(=O)N[C@H](C(=O)N[C@H](C(=O)N[C@@H](C)C(=O)O)C(C)C)[C@@H](C)O)[C@@H](C)O)[C@@H](C)O [GluR5-2 (rat)] |  |  |  | 1 (A450 nm 0-1) |  |  |
| CC(C)C[C@H](NC(=O)[C@H](CCCNC(=N)N)NC(=O)CNC(=O)CNC(=O)[C@H](CCCNC(=N)N)NC(=O)[C@H](C)NC(=O)[C@@H]1CCCN1C(=O)[C@H](CCCNC(=N)N)NC(=O)CNC(=O)CNC(=O)[C@@H](NC(=O)[C@H](C)NC(=O)CCCC[C@@H]1SC[C@@H]2NC(=O)N[C@@H]21)C(C)C)C(=O)N[C@@H](CCC(N)=O)C(=O)NCC(=O)N[C@@H](CCCNC(=N)N)C(=O)N[C@@H](CCCNC(=N)N)C(=O)N[C@@H](CCC(N)=O)C(=O)N[C@H](C(=O)N[C@@H](CCC(N)=O)C(=O)N[C@H](C(=O)O)C(C)C)[C@@H](C)O [HPV E6 58 (modified)] (Biotin-AVGGRPARGGRLQGRRQTQV-OH; C-terminus assumed) |  |  | 1 (A450 nm 0-1) | 5 (A450 nm of 4 more than 2× repeated) |  |  |
| LNETTETQRTLLNGDLQTSI (Biotin-LNETTETQRTLLNGDLQTSI) [SSTR2 (somatostatin recepor 2)] | 1 (A450 nm 0-1) |  | 1 (A450 nm 0-1) | 2 (A450 nm 1-2) | 2 (A450 nm 1-2) |  |
| KTMPAATYRLLTGQEQPVYL (Biotin-KTMPAATYRLLTGQEQPVYL) [MINT-3] | 2 (A450 nm 1-2) |  | 2 (A450 nm 1-2) | 1 (A450 nm 0-1) | 1 (A450 nm 0-1) |  |
| A2AC_HUMAN (Modified) (Biotin-DFRPSFKHILFRRARRGFRQ; not fully specified) |  |  | 3 (A450 nm 2-3) |  |  |  |
| CC[C@H](C)[C@H](NC(=O)[C@H](CC(=O)O)NC(=O)[C@H](CCC(=O)O)NC(=O)[C@H](CCCNC(=N)N)NC(=O)[C@@H](NC(=O)CCCC[C@@H]1SC[C@@H]2NC(=O)N[C@@H]21)[C@@H](C)O)C(=O)N[C@@H](Cc1ccc(O)cc1)C(=O)N[C@H](C(=O)N[C@@H](CC(N)=O)C(=O)N[C@@H](Cc1ccc(O)cc1)C(=O)N1CCC[C@H]1C(=O)N[C@H](C(=O)N[C@@H](Cc1ccccc1)C(=O)N[C@@H](CO)C(=O)N[C@@H](CCCNC(=N)N)C(=O)N[C@@H](CCCNC(=N)N)C(=O)N1CCC[C@H]1C(=O)N[C@@H](CCCCN)C(=O)N[C@H](C(=O)N[C@@H](CCCNC(=N)N)C(=O)N[C@H](C(=O)O)C(C)C)[C@@H](C)O)[C@@H](C)O)C(C)C [DNAM-1] (Biotin-TREDIYVNYPTFSRRPKTRV-OH; C-terminus assumed) |  |  |  | 3 (A450 nm 2-3) |  | 3 (A450 nm 2-3) |
| APC—adenomatous polyposis coli protein (ESSGTQSPKRHSGSYLVTSV) |  | 1 (A450 nm 0-1) |  | 1 (A450 nm 0-1) |  |  |
| GGGGGSGGGGGSGIESVKI [GLUR2 (glutamate receptor 2-modified)] |  |  |  | 1 (A450 nm 0-1) |  |  |
| CC[C@H](C)[C@H](NC(=O)CNC(=O)[C@H](CO)NC(=O)[C@H](Cc1ccccc1)NC(=O)[C@@H](NC(=O)[C@H](CS)NC(=O)CNC(=O)CNC(=O)[C@H](C)NC(=O)[C@@H]1CCCN1C(=O)[C@@H](NC(=O)[C@@H]1CCCN1C(=O)CCCC[C@@H]1SC[C@@H]2NC(=O)N[C@@H]21)[C@@H](C)CC)[C@@H](C)O)C(=O)N[C@@H](Cc1ccccc1)C(=O)N1CCC[C@H]1C(=O)N[C@H](C(=O)N[C@@H](CC(C)C)C(=O)N[C@H](C(=O)N[C@@H](CO)C(=O)N1CCC[C@H]1C(=O)N[C@@H](CC(C)C)C(=O)O)[C@@H](C)O)[C@@H](C)O [KIA 1481] (Biotin-PIPAGGCTFSGIFPTLTSPL-OH; C-terminus assumed) | 3 (A450 nm 2-3) |  | 3 (A450 nm 2-3) | 5 (A450 nm of 4 more than 2× repeated) | 5 (A450 nm of 4 more than 2× repeated) |  |
| CKR5_HUMAN (ERASSVYTRSTGEQEISVGL) | 1 (A450 nm 0-1) |  |  |  |  |  |
